Data on two compounds can be found in US8378085B2, “Bacterial ATP synthase binding domain” (priority 2004, dated 2013).

In brackets after ≈: the same amount, converted by molar mass. Several values for one entry are separate records, joined by “and”; a condition that tells them apart may be missing. Identical values can stand only once. Like-named read-outs stand apart in the source and are kept apart here.

The subject of one experiment is M. fortuitum. Put plainly: microbe, parasite or virus in culture. It is filed as cell-based, Mycobacterium fortuitum.
Experiment [1] deals with MDR-TB strains and fully drug-susceptible strains. The experiment is classed as cell-based, Mycobacterium tuberculosis.
The test system of another experiment is M. bovis. The experiment in a line: microbe, parasite or virus in culture. The experiment is classed as cell-based. Conditions: Mycobacterium tuberculosis variant bovis, read-out: MIC Median values.
The test system of another experiment is M. smegmatis. Put plainly: MIC against M. smegmatis. It is filed as cell-based, Mycobacterium smegmatis. Conditions: Mycolicibacterium smegmatis, 7 strains, read-out: MIC Median values. From the text:
Table. 1 The minimum inhibitory concentrations (MICs) of the lead DARQ compound (J), that inhibited 90% of the growth of different mycobacterial species. the number of strains tested were n=1, unless otherwise indicated.

Another experiment relates to Helicobacter pylori. It is filed as cell-based. To be noted: Gram negative Helicobacter pylori.
Another experiment relates to Staphylococcus aureus. The experiment in a line: microbe, parasite or virus in culture. It is filed as cell-based. To be noted: Staphylococcus aureus including methicillin-resistant strains.
In the next experiment the test system is Streptococcus pneumoniae. It is filed as cell-based. To be noted: Gram positive Streptococcus pneumoniae.
The test system of another experiment is Haemophilus influenzae. The experiment is classed as cell-based. Conditions: Gram negative Haemophilus influenzae.
The subject of the next experiment is M. tuberculosis. Put plainly: microbe, parasite or virus in culture. The experiment is classed as cell-based. Conditions: Mycobacterium tuberculosis.
For experiment [2], the system named is M. tuberculosis in log-phase growth. The experiment is classed as cell-based, Mycobacterium tuberculosis.
Another experiment has as its system Corynebacterium. Put plainly: microbe, parasite or virus in culture. It is filed as cell-based.
Another experiment deals with M. abscessus. Put plainly: microbe, parasite or virus in culture. The experiment is classed as cell-based, Mycobacterium abscessus. Conditions: Mycobacteroides abscessus, read-out: MIC Median values.
For the next experiment, the system named is Escherichia coli. The experiment is classed as cell-based. Conditions: Gram negative Escherichia coli.
The test system of a further experiment is Enterococcus faecalis. The experiment is classed as cell-based. Conditions: Gram positive Enterococcus faecalis.
Experiment [3] deals with M. avium complex. The experiment in a line: microbe, parasite or virus in culture. The experiment is classed as cell-based. To be noted: Mycobacterium avium, 7 strains, read-out: MIC Median values.
Experiment [4] has as its system M. smegmatis transformed with mutant atpE (D32V). The experiment is classed as cell-based. To be noted: wild-type M. smegmatis transformed with plasmid containing mutant F0 fragment (D32V); MIC practically identical to resistant strain R09.
Another experiment concerns M. kansasii. Put plainly: microbe, parasite or virus in culture. It is filed as cell-based. Conditions: Mycobacterium kansasii, read-out: MIC Median values.
In the next experiment the test system is M. marinum. Put plainly: microbe, parasite or virus in culture. Conditions: Mycobacterium marinum, read-out: MIC Median values. The experiment is classed as cell-based.
The subject of the next experiment is Nocardia. The experiment in a line: microbe, parasite or virus in culture. It is filed as cell-based.
Experiment [5] relates to wild type M. tuberculosis. It is filed as cell-based, Mycobacterium tuberculosis.
Experiment [6] relates to M. avium complex. Conditions: statement in discussion; cited from earlier work.

As to `COc1nc2ccc(Br)cc2cc1[C@@H](c1ccccc1)[C@@](O)(CCN(C)C)c1cccc2ccccc12` [J], the “MIC Median values” in the experiment on M. fortuitum (M. fortuitum resistant to fluoroquinolone, 2 strains) was 0.010 µg/mL (≈ 0.018 µM). Further, the MIC in the experiment on M. fortuitum (Mycolicibacterium fortuitum, M. fortuitum, 3 strains, read-out: MIC Median values) is 0.01 µg/mL (≈ 0.018 µM); in the experiment on M. bovis it was 0.003 µg/mL (≈ 0.0054 µM); in the experiment on M. smegmatis it was 0.007 µg/mL (≈ 0.0126 µM); in the experiment on Staphylococcus aureus, over 32 µg/mL; in the experiment on M. tuberculosis (H37RV, read-out: MIC Median values) it was 0.03 µg/mL (≈ 0.054 µM); in the experiment on M. tuberculosis (read-out: median MIC) it was 0.06 µg/mL (≈ 0.108 µM). Besides, the MIC in the experiment on Corynebacterium was 4 µg/mL (≈ 7.2 µM); in the experiment with M. abscessus it was 0.25 µg/mL (≈ 0.45 µM); in the experiment on M. avium complex [3], 0.01 µg/mL (≈ 0.018 µM); in the experiment with M. kansasii, 0.003 µg/mL (≈ 0.0054 µM); in the experiment on M. marinum, 0.003 µg/mL (≈ 0.0054 µM); in the experiment with Nocardia it was over 4 µg/mL. Also, the “isolates of MDR-TB found susceptible” value in [1] is 43% and 57%. Further, the “strains with MIC below 0.010 μg/ml” value in [1] was “only one of 10”. Moreover, in experiment [1], the susceptibility of strains entry is recorded as “all strains were susceptible”. Besides, the activity result in the experiment on Helicobacter pylori, with Streptococcus pneumoniae, in the experiment with Haemophilus influenzae, in the experiment on Escherichia coli and in the experiment on Enterococcus faecalis was “not active” each time. Besides, the “reduction in bacterial counts” value in experiment [2] is recorded as 10^3 log. Besides, the “susceptibility of transformed cells” value in experiment [4] is reported as “resistant”. The “effect on ATP production (total cellular ATP)” value in experiment [5] was “dose dependent decrease in ATP production”.
For the compound `NNC(=O)c1ccncc1` [isoniazid], in the experiment with M. avium complex [6], the “activity against MAC” value is “no activity”. For the same compound, the “effect on ATP production (total cellular ATP)” value in experiment [5] is given as “no effect”.
